Assays:
H929 cells = assay: FACS based phagocytosis assay; assay type: cell-based; conditions: NCI-H929, human macrophages, CFSE stained H929 cells, flow cytometry, normalized to positive control B6H12
Method: (§1) DPBS (Gibco), RPMI 1640 WITH HEPES AND L-GLN-500 ML (Lonza), Recombinant Human M-CSF (R& D systems), CD47 Monoclonal Antibody (B6H12), Functional Grade antibody (Ebioscience), Mouse IgG1 kappa Isotype Control, Functional Grade (Ebioscience), Vacutainer (multiple sample luer adapter) (BD), Vacutainer (sodium heparin (NH) 158USP units, Blood collection tubes (BD), Histopaque (density—1.077 gm/ml) (SIGMA 1077), Trypan Blue solution (SIGMA-T8154), Hemacytometer (Bright line-SIGMA Z359629), Scalp vein infusion set (JMS), Cell Dissociation buffer (Gibco), 48-well sterile flat bottom plates (Corning), Luciferase expressing Raji cells (Generated in house by trasfection of luciferase gene in Raji cells) Luminometer, Hygromycin B (Invitrogen), Bright Glo luciferase assay system (Promega), 96 well plate, polystyrene, high band, white flat bottom wells (Sigma CLS3912), APC anti-mouse/human CD11b Antibody (Biolegend), H929 cells, CFSE (Ebioscience), Fetal Bovine Serum (Gibco Cat #: 10437028), Round-Bottom FACs Tubes (BD), Flowcytometer BD FACS Verse, 96 well plates, ultra-low attachment (Corning).
Monocytes were isolated from blood of healthy donor and cultured for 6-8 days using 10% RPMI (Roswell Park Memorial Institute) media and recombinant human M-CSF to differentiate into macrophages. Media was changed every alternate day. Simultaneously, H929 cells were cultured in 10% RPMI media with 50 μg/mL of betamercaptoethanol in tissue culture flask. On the day of phagocytosis adherent macrophages were serum starved for 2 hours in RPMI media. Simultaneously H929 cells were stained with 0.3 μM CFSE stain. After washing, 0.2 million CFSE stained H929 cells were incubated with anti-human CD47 or Mouse IgG1 K Isotype Control antibody or various conc of test item in serum free media for 30 min at 37° C. After 2 hours of serum starvation macrophages were dissociated with cell dissociation buffer and collected by gentle scraping and added at conc of 0.05 million per well into respective wells of the ultra-low attachment 96 well plate seeded with H929 cells. Phagocytosis was allowed for 2 hours. After 2 hours, cells were washed with PBS and stained with 1 μL of anti-human CD11b-APC antibody prepared in 100 μL of PBS for 30 min in 4° C. in dark. Cells were further washed and fixed in 100 μL of fixation buffer until acquired by Flow cytometry. The extent of phagocytosis of H929 cells by human macrophages was measured by acquiring the samples by Flow cytometry. Samples acquired by Flow cytometry were analysed by using FlowJo software. Each experimental condition was carried out in duplicate. Cells positive for FITC (CFSE) and CD11b-APC were considered as phagocytosed macrophages. Raw data of % phagocytosis by macrophages were obtained in the form of excel sheet from FlowJo. % phagocytosis from isotype control (background phagocytosis) was subtracted from % phagocytosis of macrophages treated with compound as well as other controls to get corrected phagocytosis values. Corrected phagocytosis values of compound treated samples were normalized with phagocytosis of positive control (B6H12) using the formula: % normalized phagocytosis=[(corrected % phagocytosis of compound)/(corrected phagocytosis of B6H12)*100]

[1] = test system: luciferase expressing Raji cells; assay: Luciferase based phagocytosis assay; assay type: cell-based; conditions: human monocyte-derived macrophages, luminescence, read-out: % normalized phagocytosis (at 10 μM)
Method: as §1
In vitro phagocytosis assay was performed to evaluate the ability of test item to enhance the phagocytic activity of macrophages. Monocytes were isolated from blood of healthy donor and cultured for 6-8 days using 10% RPMI (Roswell Park Memorial Institute) media and recombinant human M-CSF to differentiate into macrophages. Media was changed every alternate day. After differentiation, adherent macrophages were collected by gentle scraping and cultured in 10% RPMI overnight at a density of 0.1 million per well in 48 well tissue culture plate. Simultaneously, luciferase expressing Raji cells were cultured in 10% RPMI media with 100 μg/mL of hygromycin B in tissue culture flask. On the day of phagocytosis, macrophages were serum starved for 2 hours. 0.4 million luciferase expressing Raji cells per well were incubated with anti human CD47 purified B6H12 or Mouse IgG1 K Isotype Control antibody or various concentrations of test item in serum free media for 30 min at 37° C. and added into respective well of the 48 well plate seeded with macrophages. After 2 hours, cells were washed twice with PBS and 100 μL of serum free RPMI was added to each well. Additionally, 50 μL Bright Glow reagent was added to each well followed by mixing of cells and incubated for 5 min in dark. Luminescence reading was taken using plate reader after transferring the content of each well to white plate. Intensity of luminescence indicated the extent of phagocytosis. Each experimental condition was carried out in duplicate.

Row | SMILES | activation at 10 µM (H929 cells) | activation at 10 µM [1]
1 | N=C(N)NCCC[C@H](N)c1noc([C@H](CCC(=O)O)NC(=O)N2CCCC2C(=O)O)n1 (stereo partly drawn) [Compound 2] | 37% | –
2 | N=C(N)NCCC[C@H](NC(=O)N[C@@H](CCC(N)=O)c1nc([C@@H](N)CC(N)=O)no1)C(=O)O [Compound 9] | – | 38%
3 | NCCCC[C@H](N)c1noc([C@H](CCC(=O)O)NC(=O)N[C@@H](Cc2cnc[nH]2)C(=O)O)n1 [Compound 13] | 29% | 49%
4 | CCC(C)[C@H](N)c1noc([C@H](CCCNC(=N)N)NC(=O)N2CCCC2C(=O)O)n1 (stereo partly drawn) [Compound 29] | 26% | –
5 | N=C(N)NCCC[C@H](NC(=O)N[C@@H](Cc1c[nH]c2ccccc12)C(=O)O)c1nc([C@@H](N)CCC(=O)O)no1 [Compound 46] | 30% | –
6 | N=C(N)NCCC[C@H](NC(=O)N[C@@H](CC(=O)O)C(=O)O)c1nc([C@@H](N)CCC(=O)O)no1 [Compound 47] | 18% | –
7 | N[C@@H](Cc1ccccc1)c1noc(CNC(=O)N2CCCC2C(=O)O)n1 (stereo partly drawn) [Compound 16] | 27% | –
8 | N=C(N)NCCC[C@H](NC(=O)N1CCCC1C(=O)O)c1nc([C@@H](N)CCC(=O)O)no1 (stereo partly drawn) [Compound 3] | 73% | 42%
9 | N=C(N)NCCC[C@H](NC(=O)NCC(=O)O)c1nc([C@@H](N)CCC(=O)O)no1 [Compound 48] | 29% | –
10 | CCC(C)[C@H](NC(=O)N[C@@H](CCCNC(=N)N)c1nc([C@@H](N)CCC(=O)O)no1)C(=O)O (stereo partly drawn) [Compound 37] | 17% | –
11 | N[C@@H](CCC(=O)O)c1noc([C@H](CO)NC(=O)N2CCCC2C(=O)O)n1 (stereo partly drawn) [Compound 35] | 35% | –
12 | NC(=O)CC[C@H](N)c1noc([C@H](CCC(=O)O)NC(=O)N2CCCC2C(=O)O)n1 (stereo partly drawn) [Compound 21] | 13% | –
13 | N[C@@H](Cc1cnc[nH]1)c1noc([C@H](Cc2ccccc2)NC(=O)N2CCCC2C(=O)O)n1 (stereo partly drawn) [Compound 19] | 52% | –
14 | NCCCC[C@H](NC(=O)NCc1nc([C@@H](N)CCC(N)=O)no1)C(=O)O [Compound 41] | 31% | –
15 | N=C(N)NCCC[C@H](NC(=O)N1CCCC1C(=O)O)c1nc([C@@H](N)CC(=O)O)no1 (stereo partly drawn) [Compound 23] | 60% | –
16 | N=C(N)NCCC[C@H](NC(=O)N1CCCC1C(=O)O)c1nc([C@@H](N)CCC(N)=O)no1 (stereo partly drawn) [Compound 5] | 56% | –
17 | N=C(N)NCCC[C@H](NC(=O)N[C@@H](CCC(=O)O)C(=O)O)c1nc([C@@H](N)CCC(=O)O)no1 [Compound 51] | 24% | –
18 | CC(C)C[C@H](NC(=O)N[C@@H](CCCNC(=N)N)c1nc([C@@H](N)CCC(=O)O)no1)C(=O)O [Compound 44] | 20% | –

Row | SMILES | activation at 10 µM (H929 cells) | activation at 10 µM [1]
19 | N[C@@H](CCC(=O)O)c1noc(CNC(=O)N2CCCC2C(=O)O)n1 (stereo partly drawn) [Compound 17] | 33% | –
20 | N[C@@H](CCC(=O)O)c1noc(CNC(=O)N[C@@H](Cc2cnc[nH]2)C(=O)O)n1 [Compound 22] | 33% | –
21 | N=C(N)NCCC[C@H](NC(=O)N[C@@H](CCC(N)=O)C(=O)O)c1nc([C@@H](N)CCC(N)=O)no1 [Compound 12] | 20% | 44%
22 | COC(=O)CC[C@H](N)c1noc(C(CCCNC(=N)N)NC(=O)N2CCCC2C(=O)OC)n1 (stereo partly drawn) [Compound 39] | 23% | –
23 | COC(=O)C1CCCN1C(=O)NC(CCCNC(=N)N)c1nc([C@@H](N)CCC(=O)O)no1 (stereo partly drawn) [Compound 40] | 27% | –
24 | NCCCC[C@H](N)c1noc([C@H](CCC(=O)O)NC(=O)NCC(=O)O)n1 [Compound 15] | 62% | –
25 | N=C(N)NCCC[C@H](NC(=O)N[C@@H](CCC(=O)O)c1nc([C@@H]2CCCN2)no1)C(=O)O [Compound 8] | 40% | 20%
26 | N[C@@H](CCC(=O)O)c1noc([C@H](Cc2ccccc2)NC(=O)N2CCC[C@H]2C(=O)O)n1 [Compound 33] | 31% | –
27 | NCc1noc([C@H](Cc2cnc[nH]2)NC(=O)N[C@@H](Cc2ccccc2)C(=O)O)n1 [Compound 14] | 26% | 47%
28 | NC(=O)CC[C@H](N)c1noc(CNC(=O)N[C@@H](CCC(=O)O)C(=O)O)n1 [Compound 50] | 26% | –
29 | N=C(N)NCCC[C@H](NC(=O)N1CCCC1C(=O)O)c1nc(CN)no1 (stereo partly drawn) [Compound 31] | 58% | –
30 | N[C@@H](CCC(=O)O)c1noc([C@H](CCC(=O)O)NC(=O)N2CCCC2C(=O)O)n1 (stereo partly drawn) [Compound 32] | 46% | –
31 | N=C(N)NCCC[C@H](NC(=O)N[C@@H](Cc1ccccc1)C(=O)O)c1nc([C@@H](N)CCC(N)=O)no1 [Compound 10] | 28% | –
32 | N=C(N)NCCC[C@H](N)c1noc([C@H](CCC(=O)O)NC(=O)N[C@@H](Cc2ccccc2)C(=O)O)n1 [Compound 7, (S)-4-(3-((S)-1-amino-4-guanidinobutyl)-1,2,4-oxadiazol-5-yl)-4-(3-((S)-1-carboxy-2-phenylethyl)ureido)butanoic acid] | 38% | 58%
33 | NCCCC[C@H](NC(=O)N[C@@H](CCC(N)=O)c1nc([C@@H](N)CC(N)=O)no1)C(=O)O [Compound 43] | 43% | –
34 | N=C(N)NCCC[C@H](NC(=O)N1CCCC1C(=O)O)c1nc([C@@H](N)Cc2c[nH]c3ccccc23)no1 (stereo partly drawn) [Compound 30] | 23% | –
35 | NCCCC[C@H](N)c1noc([C@H](CCC(N)=O)NC(=O)N2CCC[C@H]2C(=O)O)n1 [Compound 1, (((S)-4-amino-1-(3-((S)-1,5-diaminopentyl)-1,2,4-oxadiazol-5-yl)-4-oxobutyl)carbamoyl)-L-proline] | 45% | 39%

Source: patent US12565515B2, “1,2,4-oxadiazole compounds as inhibitors of CD47 signalling pathways” (AURIGENE ONCOLOGY LIMITED, priority 2018, dated 2026)
